Experiments:
[1] = test system: cdk6; assay: Western blot of cdk6 in HeLa cells; type: cell-based, human; details: 6 mM sodium butyrate, 16 hours
Procedure: (§1) 50 μg of protein were separated on 12% SDS-PAGE minigels. After electrotransfer, the filters were incubated with antibodies against cyclin D1, cyclin E, cyclin A or cdk2, cdk4 or cdk6 specific antibodies. Equal protein loading was confirmed by reincubating the filters with a monoclonal actin antibody.
(§2) Cellular extracts were separated in 8-12% SDS PAGE gels and electrotransferred as described elsewhere (Finzer et al., Oncogene 19 (2000), 3235-3244; Soto et al., Oncogene 18 (1999), 3187-3198). The following antibodies were used: cyclin E (HE 12), cyclin D 1 (HD 11), cdk2 (M2), (D-12; Santa Cruz Biotechnology, Inc., Santa Cruz, USA), cdk4 (C-22), cdk6 (C-21), p27^KIP1 (C-19), (K25020), p45^SKP2 (N-19), HPV18-E7 (N-19) and E2F-1 (KH95) (Santa Cruz Biotechnology, Inc. Santa Cruz, USA), p21^CIP1 (C24420; Transduction Laboratories, Lexington, USA), pRB (NCL-RB; Novocastra, UK), p16^INK4 (15126E, Pharmingen, San Diego, USA) and HPV 16 E7 (ZYMED Lab. Inc., San Francisco, USA). Cyclin A was kindly provided by M. Pagano (Pagano et al., EMBO J. 11 (1992), 961-971). Equal protein transfer and loading was routinely checked by incubating the filters with a monoclonal actin antibody (ICN Biomedicals, Ohio, USA).

[2] = test system: cyclin D1; assay: Western blot of cyclin D1 in HeLa cells; type: cell-based, human; details: 6 mM sodium butyrate, 16 hours
Procedure: as §1, §2

[3] = test system: E2F-1; assay: Western blot of E2F-1 in HPV16-immortalized keratinocytes; type: cell-based; details: HPV16-immortalized human keratinocytes, 6 mM sodium butyrate, 16 hours
Procedure: Western blot analysis of cellular extracts obtained from E6-, E7-, and E6/E7-Immortalized cells which were separated in 8% (pRb) and 12% SDS-PAGE gels. After electrotransfer, the filters were incubated with pRb, E2F-1, cyclin E and actin antibodies. […] Due to quantitative differences of pRb and cyclin E levels in E7- and E6/E7-positive cells, the filters were exposed for different times.
HPV18-positive cervical Carcinoma cells (HeLa) were maintained in Dulbecco's modified Eagle's medium (DMEM), supplemented with 10% fetal calf serum (Gibco BRL, Rockville, USA), 1% penicillin and streptomycin (Sigma, Deisenhofen, Deutschland). Primary human keratinocytes, immortalized by E6-, E7- and E6/E7-open reading frames carrying amphotroptic retroviruses were cultivated in “Keratinocyte Medium Kit” (Sigma). Human foreskin keratinocytes transformed with HPV-16 E6/E7 either under the control of a human β-actin promoter (,1321″) or under the control of the authentic upstream regulatory region HPV (,1637″) were a kind gift of Dr. R. Schlegel (Georgetown University, Washington, USA) (Münger et al., J. Virol. 63 (1989), 4414-4423; Villa & Schlegel, Virology 181 (1991), 374-377). Cells were grown in 3 parts of keratinocyte-serum free medium (K-SFM, GIBCO, BRL) and 1 part of DMEM containing 10% fetal calf serum (GIBCO, BRL) and 0.75% gentamycin, 0.25% penicillin/streptomycin, respectively […]

[4] = test system: p16^INK4; assay: Western blot of p16^INK4 in HeLa cells; type: cell-based, human; details: 6 mM sodium butyrate, 16 hours
Procedure: (A) Westem blot analysis. 50 μg of cellular protein were loaded on SDS-PAGE minigels. After electrotransfer, the filters were incubated with p21^CIP1, p27^KIP1, p16^INK4 and p45^SKP2. Equal protein loading was confirmed by a monoclonal actin antibody.
as §2

[5] = test system: "1637" cells; assay: Flow-cytometric cell cycle analysis of "1637" keratinocytes (HPV-16 E6/E7 under HPV16 URR); type: cell-based, human; details: 6 mM sodium butyrate, 16 hours
Description: (§3) (B) Flow-cytometric analysis. Quantification of the proportion of cells in the cell cycle phases G1, S and G2/M (standard deviations are the mean of three independent experiments).
(§4) HPV18-positive cervical Carcinoma cells (HeLa) were maintained in Dulbecco's modified Eagle's medium (DMEM), supplemented with 10% fetal calf serum (Gibco BRL, Rockville, USA), 1% penicillin and streptomycin (Sigma, Deisenhofen, Deutschland). Primary human keratinocytes, immortalized by E6-, E7- and E6/E7-open reading frames carrying amphotroptic retroviruses were cultivated in “Keratinocyte Medium Kit” (Sigma). Human foreskin keratinocytes transformed with HPV-16 E6/E7 either under the control of a human β-actin promoter (,1321″) or under the control of the authentic upstream regulatory region HPV (,1637″) were a kind gift of Dr. R. Schlegel (Georgetown University, Washington, USA) (Münger et al., J. Virol. 63 (1989), 4414-4423; Villa & Schlegel, Virology 181 (1991), 374-377). […]
(§5) Cells were harvested by trypsinisation, washed twice with phosphate-buffered saline (PBS) and fixed overnight in 70% ethanol. […] Cell cycle analysis and quantification of flow cytometric data was performed according to Dean and Jett, J. Cell. […]

[6] = test system: "1321" cells; assay: Flow-cytometric cell cycle analysis of "1321" keratinocytes (HPV-16 E6/E7 under β-actin promoter); type: cell-based, human; details: 6 mM sodium butyrate, 16 hours
Description: as §3, §4, §5

[7] = test system: p21^CIP1 mRNA; assay: Northern blot of p21^CIP1 in "1637" keratinocytes; type: cell-based, human; details: "1637" cells, six hours following NaB addition
Procedure: Keratinocytes immortalized with HPV16 E6/E7 either under control of (A) the homologues viral upstream regulatory region (,1637″) or (B) of the β-actin promoter (,1321″) were incubated with NaB for various periods of time. 5 μg of RNA was separated in 1% agarose gels. The filters were hybridized with probes specific for HPV16, p21^CIP1 (=p21), β-actin and GAPDH. The positions of the 28S and 18S ribosomal RNA are indicated. (Contr.): untreated cells.
Total cellular RNA was extracted according to the guanidinium-thiocyanate procedure (Chomczynski and Sacchi, Anal. Biochem. 162 (1987), 156-159). Approximately 5 μg RNA were separated on 1% agarose gels in the presence of ethidium bromide under non-denaturing conditions and transferred to GeneScreen Plus membranes (DuPont, Bad Homburg, Deutschland). The filters were hybridized under stringent conditions with specific probes, which were labeled with ^32p-dCTP by random priming (Feinberg and Vogelstein, Anal. Biochem. 137 (1984), 266-267).

For `CCCC(=O)[O-].[Na+]` [sodium butyrate], the cdk6 expression [1] was “neither the cyclin-dependent kinase 2 (cdk2) nor cdk4 or cdk6 revealed any significant influence on their expression rates”, the “cyclin D1 protein level” value [2] was “selectively downregulates” and the E2F-1 level [3] was “did not significantly vary”. For the same compound, the “p16^INK4 protein level” value [4] was “no reduction was discerned”, the “proportion of cells within S-phase” value ([5]; "1621" as printed, untreated 24.9%) was 4.7% and the “cells in G1” value ([5]; "1621" keratinocytes as printed, untreated 65.3%) was 81.2%. The “proportion of cells within S-phase” value ([6]; untreated 31.5%) was 18.6%, the “cells in G1” value ([6]; untreated 54.2%) was 65.3% and the p21CIP1 expression [7] was “augmented”.
